Reference: ChEMBL document CHEMBL1201862, “PubChem BioAssay data set” (2004)
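Dose response: 5 concentrations. Exposure: 48 h. Format: 96-well plates. Endpoint: linear interpolation; highest concentration if not reached. GI50 is the concentration that inhibits growth by half.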 Activity calls are given as the source filed them. No stated cut-off is given here; in the data, active = GI50 up to about 1.1 µM and inactive = higher.

How the values were obtained:
Assay in all cases: NCI anticancer screen, dose series, 48 h
A498 = system: A498
A549 = system: A549
BT-549 = system: BT-549
CAKI-1 = system: CAKI-1
COLO 205 = system: COLO 205
EKVX = system: EKVX
HCT-116 = system: HCT-116
HCT-15 = system: HCT-15
HOP-62 = system: HOP-62
IGROV-1 = system: IGROV-1
LOX IMVI = system: LOX IMVI
NCI-H23 = system: NCI-H23
NCI-H522 = system: NCI-H522
OVCAR-8 = system: OVCAR-8
SN12C = system: SN12C
SNB-19 = system: SNB-19
SR = system: SR
SW-620 = system: SW-620
T47D = system: T47D
M19-MEL = system: M19-MEL

| Compound | GI50 (A498) | GI50 (A549) | GI50 (BT-549) | GI50 (CAKI-1) | GI50 (COLO 205) | GI50 (EKVX) | GI50 (HCT-116) | GI50 (HCT-15) [µM] | GI50 (HOP-62) | GI50 (IGROV-1) | GI50 (LOX IMVI) | GI50 (NCI-H23) | GI50 (NCI-H522) | GI50 (OVCAR-8) | GI50 (SN12C) | GI50 (SNB-19) | GI50 (SR) | GI50 (SW-620) | GI50 (T47D) | GI50 (M19-MEL) |
| --- | --- | --- | --- | --- | --- | --- | --- | --- | --- | --- | --- | --- | --- | --- | --- | --- | --- | --- | --- | --- |
| C[N+]1(CCN[N+]2(C)CCCCC2)CCc2ccccc2C1 (stereo not drawn) | > 100 µM (inactive) | > 100 µM (inactive) | > 100 µM (inactive) | > 100 µM (inactive) | > 100 µM (inactive) | > 100 µM (inactive) | > 100 µM (inactive) | > 100 | > 100 µM (inactive) | > 100 µM (inactive) | > 100 µM (inactive) | > 100 µM (inactive) | > 100 µM (inactive) | > 100 µM (inactive) | > 100 µM (inactive) | > 100 µM (inactive) | > 100 µM (inactive) | > 100 µM (inactive) | > 100 µM (inactive) |  |
| S=c1c2cc(I)ccc2nc(S)n1Cc1ccccc1 | 3.33 µM (inactive) | 3.68 µM (inactive) | 4.42 µM (inactive) | 3.78 µM (inactive) | 10.7 µM (inactive) | 3.71 µM (inactive) | 3.38 µM (inactive) | 3.78 | 2.87 µM (inactive) | 4.05 µM (inactive) | 3.4 µM (inactive) | 2.91 µM (inactive) | 4.38 µM (inactive) | 5.57 µM (inactive) | 3.16 µM (inactive) | 4.32 µM (inactive) | 3.64 µM (inactive) | 3.72 µM (inactive) | 1.5 µM (inactive) |  |
| C=CC1[C@H]2COC(C)(C)O[C@@H]2CC(=O)C1(C)C (stereo partly drawn) |  | > 100 µM (inactive) |  | > 100 µM (inactive) | > 100 µM (inactive) | 54.2 µM (inactive) | > 100 µM (inactive) |  | > 100 µM (inactive) |  | > 100 µM (inactive) | > 100 µM (inactive) | > 100 µM (inactive) | > 100 µM (inactive) | > 100 µM (inactive) | > 100 µM (inactive) |  | > 100 µM (inactive) |  | > 100 µM (inactive) |
| Oc1ccccc1/C=N/c1ccc(Oc2ccc(Cl)cc2)c(Cl)c1 | 11.5 µM (inactive) | 20.6 µM (inactive) | 15.8 µM (inactive) | 23.2 µM (inactive) | 21.8 µM (inactive) | 21.3 µM (inactive) | 16.7 µM (inactive) | 16.3 | 15.5 µM (inactive) | 22.7 µM (inactive) | 15.7 µM (inactive) | 18.6 µM (inactive) | 14.4 µM (inactive) | 19.9 µM (inactive) | 21.8 µM (inactive) | 17.4 µM (inactive) | 38.2 µM (inactive) | 28.9 µM (inactive) | 5.97 µM (inactive) |  |
| CC1CNC(c2ccc3c(c2)Cc2cc(C4=NC(C)CN4)ccc2-3)=N1 (stereo not drawn) | > 100 µM (inactive) | > 100 µM (inactive) | > 100 µM (inactive) | > 100 µM (inactive) | 54 µM (inactive) | > 100 µM (inactive) | 31.3 µM (inactive) | > 100 | 41 µM (inactive) | > 100 µM (inactive) | 47.2 µM (inactive) | 37.2 µM (inactive) | 22.2 µM (inactive) | 37.2 µM (inactive) | 48.1 µM (inactive) | 36.6 µM (inactive) | 42.9 µM (inactive) | 56.1 µM (inactive) | 35.6 µM (inactive) |  |
| OCC1OC(N2CCN(C3OC(CO)C(O)C(O)C3O)CC2)C(O)C(O)C1O (stereo not drawn) | > 100 µM (inactive) | > 100 µM (inactive) | > 100 µM (inactive) | > 100 µM (inactive) | > 100 µM (inactive) | > 100 µM (inactive) | > 100 µM (inactive) | > 100 | > 100 µM (inactive) | > 100 µM (inactive) | > 100 µM (inactive) | > 100 µM (inactive) | > 100 µM (inactive) | > 100 µM (inactive) | > 100 µM (inactive) | > 100 µM (inactive) | > 100 µM (inactive) | > 100 µM (inactive) | > 100 µM (inactive) |  |
| COc1ccccc1-n1nnc2c(N)nc(N)nc21 | > 100 µM (inactive) | > 100 µM (inactive) | > 100 µM (inactive) | > 100 µM (inactive) | > 100 µM (inactive) | > 100 µM (inactive) | > 100 µM (inactive) | > 100 | > 100 µM (inactive) | > 100 µM (inactive) | > 100 µM (inactive) | > 100 µM (inactive) | > 100 µM (inactive) | > 100 µM (inactive) | > 100 µM (inactive) | > 100 µM (inactive) | > 100 µM (inactive) | > 100 µM (inactive) | > 100 µM (inactive) |  |
